# Source: PubChem BioAssay AID1918930 (Molecular Pharmacology Branch, DTP, NCI, 2023)
# Values joined by “and” are separate entries in the source; they are usually repeats but may differ in a detail not shown here. Equal entries are not always repeated. Active and inactive are the calls of the source. The calls were made as follows: active = viability on the fitted dose curve at most 10% of control; inactive = the rest.
# System: 233499-124-R-J3-PDC complex spheroid viability, % test/control
# Assay: Anticancer human tumor 233499-124-R-J3-PDC patient-derived colon adenocarcinoma cell line growth inhibition
# Conditions: for viability, T/C: stronger effect = lower value
# Outline: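 Drug combinations with the LSD1 inhibitor iadademstat tested on tumor cells co-cultured as spheroids with endothelial cells and mesenchymal stem cells. Concentrations descended in half-log increments from clinical Cmax or 10 microM.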
# [1] = curve of first compound, second compound 0.1 µM
# [2] = curve of first compound, second compound 0.316 µM
# [3] = curve of first compound, second compound 1 µM
# [4] = curve of first compound, second compound 3.16 µM
# [5] = curve of first compound, second compound 10 µM
# [6] = second compound 0.1 µM, first compound 0.00949 µM
# [7] = second compound 0.1 µM, first compound 0.03 µM
# [8] = second compound 0.1 µM, first compound 0.0949 µM
# [9] = second compound 0.1 µM, first compound 0.3 µM
# [10] = second compound 0.1 µM, first compound 0.949 µM
# [11] = second compound 0.1 µM, first compound 3 µM
# [12] = second compound 0.316 µM, first compound 0.00949 µM
# [13] = second compound 0.316 µM, first compound 0.03 µM
# [14] = second compound 0.316 µM, first compound 0.0949 µM
# [15] = second compound 0.316 µM, first compound 0.3 µM
# [16] = second compound 0.316 µM, first compound 0.949 µM
# [17] = second compound 0.316 µM, first compound 3 µM
# [18] = second compound 1 µM, first compound 0.00949 µM
# [19] = second compound 1 µM, first compound 0.03 µM
# [20] = second compound 1 µM, first compound 0.0949 µM
# [21] = second compound 1 µM, first compound 0.3 µM
# [22] = second compound 1 µM, first compound 0.949 µM
# [23] = second compound 1 µM, first compound 3 µM
# [24] = second compound 3.16 µM, first compound 0.00949 µM
# [25] = second compound 3.16 µM, first compound 0.03 µM
# [26] = second compound 3.16 µM, first compound 0.0949 µM
# [27] = second compound 3.16 µM, first compound 0.3 µM
# [28] = second compound 3.16 µM, first compound 0.949 µM
# [29] = second compound 3.16 µM, first compound 3 µM
# [30] = second compound 10 µM, first compound 0.00949 µM
# [31] = second compound 10 µM, first compound 0.03 µM
# [32] = second compound 10 µM, first compound 0.0949 µM
# [33] = second compound 10 µM, first compound 0.3 µM
# [34] = second compound 10 µM, first compound 0.949 µM
# [35] = second compound 10 µM, first compound 3 µM
# 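For IC50 in this document: spheroids exposed to agents for one week before readout.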
# 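For viability, T/C in this document: spheroids exposed to agents for one week before readout.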
smiles,measurement,setting,value
CC1(C)CCC(CN2CCN(c3ccc(C(=O)NS(=O)(=O)c4ccc(NCC5CCOCC5)c([N+](=O)[O-])c4)c(Oc4cnc5[nH]ccc5c4)c3)CC2)=C(c2ccc(Cl)cc2)C1 + NC1CCC(NC2CC2c2ccccc2)CC1,IC50,[1],7.56 µM
same,IC50,[2],6.46 µM
same,IC50,[3],9.01 µM
same,IC50,[4],7.55 µM
same,IC50,[5],7.29 µM
same,"viability, T/C","second compound 0.1 µM, first compound 0.0316 µM",119%
same,"viability, T/C","second compound 0.1 µM, first compound 0.1 µM",127%
same,"viability, T/C","second compound 0.1 µM, first compound 0.316 µM",132%
same,"viability, T/C","second compound 0.1 µM, first compound 1 µM",116%
same,"viability, T/C","second compound 0.1 µM, first compound 3.16 µM",143%
same,"viability, T/C","second compound 0.1 µM, first compound 10 µM",25.2%
same,"viability, T/C","second compound 0.316 µM, first compound 0.0316 µM",111%
same,"viability, T/C","second compound 0.316 µM, first compound 0.1 µM",109%
same,"viability, T/C","second compound 0.316 µM, first compound 0.316 µM",114%
same,"viability, T/C","second compound 0.316 µM, first compound 1 µM",105%
same,"viability, T/C","second compound 0.316 µM, first compound 3.16 µM",132%
same,"viability, T/C","second compound 0.316 µM, first compound 10 µM",10.5%
same,"viability, T/C","second compound 1 µM, first compound 0.0316 µM",95.7%
same,"viability, T/C","second compound 1 µM, first compound 0.1 µM",91.2%
same,"viability, T/C","second compound 1 µM, first compound 0.316 µM",97.8%
same,"viability, T/C","second compound 1 µM, first compound 1 µM",104%
same,"viability, T/C","second compound 1 µM, first compound 3.16 µM",118%
same,"viability, T/C","second compound 1 µM, first compound 10 µM",44.8%
same,"viability, T/C","second compound 3.16 µM, first compound 0.0316 µM",88.8%
same,"viability, T/C","second compound 3.16 µM, first compound 0.1 µM",99.8%
same,"viability, T/C","second compound 3.16 µM, first compound 0.316 µM",83%
same,"viability, T/C","second compound 3.16 µM, first compound 1 µM",98.9%
same,"viability, T/C","second compound 3.16 µM, first compound 3.16 µM",96.6%
same,"viability, T/C","second compound 3.16 µM, first compound 10 µM",36%
same,"viability, T/C","second compound 10 µM, first compound 0.0316 µM",87.4%
same,"viability, T/C","second compound 10 µM, first compound 0.1 µM",86.5%
same,"viability, T/C","second compound 10 µM, first compound 0.316 µM",85.2%
same,"viability, T/C","second compound 10 µM, first compound 1 µM",93.1%
same,"viability, T/C","second compound 10 µM, first compound 3.16 µM",101%
same,"viability, T/C","second compound 10 µM, first compound 10 µM",34.5%
COc1cc(C2c3cc4c(cc3C(OC3OC5COC(C)OC5C(O)C3O)C3COC(=O)C23)OCO4)cc(OC)c1O (configuration not stated) + NC1CCC(NC2CC2c2ccccc2)CC1,IC50,[1],> 3 µM
same,IC50,[2],> 3 µM
same,IC50,[3],> 3 µM
same,IC50,[4],> 3 µM
same,IC50,[5],1.29 µM
same,"viability, T/C",[6],96.6%
same,"viability, T/C",[7],102%
same,"viability, T/C",[8],80.8%
same,"viability, T/C",[9],88.8%
same,"viability, T/C",[10],81%
same,"viability, T/C",[11],75.5%
same,"viability, T/C",[12],119%
same,"viability, T/C",[13],115%
same,"viability, T/C",[14],89%
same,"viability, T/C",[15],95%
same,"viability, T/C",[16],89.9%
same,"viability, T/C",[17],73.4%
same,"viability, T/C",[18],97.1%
same,"viability, T/C",[19],81.3%
same,"viability, T/C",[20],80.1%
same,"viability, T/C",[21],77.3%
same,"viability, T/C",[22],65.7%
same,"viability, T/C",[23],92.2%
same,"viability, T/C",[24],91.5%
same,"viability, T/C",[25],83.7%
same,"viability, T/C",[26],81.4%
same,"viability, T/C",[27],65.9%
same,"viability, T/C",[28],82%
same,"viability, T/C",[29],57.6%
same,"viability, T/C",[30],97.1%
same,"viability, T/C",[31],77.6%
same,"viability, T/C",[32],74.7%
same,"viability, T/C",[33],60.5%
same,"viability, T/C",[34],63.7%
same,"viability, T/C",[35],36.4%
CC[C@@]1(O)C(=O)OCc2c1cc1n(c2=O)Cc2cc3c(CN(C)C)c(O)ccc3nc2-1,"viability, T/C",compound 0.000316 µM,79.7% and 94.3%
same,"viability, T/C",compound 0.001 µM,70% and 85.8%
same,"viability, T/C",compound 0.00316 µM,63.5% and 72.9%
same,"viability, T/C",compound 0.01 µM,51.6% and 62.8%
same,"viability, T/C",compound 0.0316 µM,70% and 69.2%
same,"viability, T/C",compound 0.1 µM,94.3% and 109%
same,IC50,curve of compound,> 0.1 µM
CCN(c1cc(-c2ccc(CN3CCOCC3)cc2)cc(C(=O)NCc2c(C)cc(C)[nH]c2=O)c1C)C1CCOCC1 + NC1CCC(NC2CC2c2ccccc2)CC1,IC50,[1],> 3 µM
same,IC50,[2],> 3 µM
same,IC50,[3],> 3 µM
same,IC50,[4],> 3 µM
same,IC50,[5],> 3 µM
same,"viability, T/C",[6],99.9%
same,"viability, T/C",[7],117%
same,outcome,[8],inactive
same,"viability, T/C",[9],121%
same,"viability, T/C",[10],101%
same,"viability, T/C",[11],126%
same,"viability, T/C",[12],101%
same,"viability, T/C",[13],110%
same,"viability, T/C",[14],113%
same,"viability, T/C",[15],102%
same,"viability, T/C",[16],118%
same,"viability, T/C",[17],135%
same,"viability, T/C",[18],80.9%
same,"viability, T/C",[19],77.9%
same,"viability, T/C",[20],80.4%
same,"viability, T/C",[21],96.2%
same,"viability, T/C",[22],88.5%
same,"viability, T/C",[23],122%
same,"viability, T/C",[24],75.5%
same,"viability, T/C",[25],95.2%
same,"viability, T/C",[26],85.8%
same,"viability, T/C",[27],87.4%
same,"viability, T/C",[28],76.2%
same,"viability, T/C",[29],104%
same,"viability, T/C",[30],86%
same,"viability, T/C",[31],68%
same,"viability, T/C",[32],69.4%
same,"viability, T/C",[33],74.9%
same,"viability, T/C",[34],83.5%
same,"viability, T/C",[35],90.2%
